# In patent publication US20250304933A1, “INDUCIBLE RECOMBINASE SYSTEMS” (priority 2022, published 2025):
# What was measured:
# [1] = system: DreSTAPL (Dre split with HCV-derived NS3 protease); test: DreStaPL recombination reporter assay in infected Lin- bone marrow (Rosa26:RLTG); assay type: cell-based, mice; details: 10 μM
# Method: (§1) FIGS. 27A-27I show inducible recombinases for modeling Flt3 activation.
# (§2) MSCV retroviral vectors were transfected with pCL-Eco packaging vector into 293T-17 cells using JetPRIME following the manufacturers protocol (5 ug each, 1:1). Conditioned media was collected 72 hours later and passed through a 0.45 uM filter. Virus was either used fresh or stored at −80 C for later usage. For viral infection in FIG. 4 and Extended Data 8, lineage negative bone marrow was isolated using the Mouse Hematopoietic Progenitor Cell Isolation Kit (StemCell 19856) and plated over retronectin coated 6 or 12 well plates for 2 hours in RPMI+10% FBS supplemented with Penicillin/Streptomycin, 20 ng SCF, 10 ng IL6 and 10 ng IL3. Virus and 100×HEPES was added to the wells, then plates were spun for 1 hour at 800×G at 37 C. Following spin, small molecule ligands used to activate recombinases were added to a final concentration as indicated ethanol (v/v 0.0015%), DMSO (v/v 0.1%), 4-hydroxytamoxifen (4-OHT; 400 nM), trimethoprim (TMP; 1 uM) or grazoprevir (GZV, 10 uM). Cells were harvested for flow cytometric analysis 48 hours post infection. For viral infection followed by transplantation in Extended Data 8, a similar approach was utilized with the following modifications. Donor mice were treated with 5-FU 6 days prior to harvest. […]
# [2] = system: DreStaPL-ODC Flt3^GL-ITD mice; test: complete blood counts of DreStaPL-ODC x Flt3^GL-ITD mice after GZV; assay type: in vivo; details: crossed to Flt3^GL-ITD, 6-8 weeks post treatment
# Method: Peripheral blood was isolated by submandibular bleeds. Complete blood counts were assessed on a ProCyte by IDEXX. For flow cytometry analysis whole blood was lysed with RBC lysis buffer (Biolegend). […] For whole bone marrow was isolation, the femur, hip and tibia were dissected and cleaned.
# Jak2^V617F LSKs and MEPs = details: 7 days of treatment; for down-regulation of STAT5 target gene expression, NES: vs MPN control
# Method: Lineage-depleted marrow was isolated and then TdTonmato+ (Jak2^RL knock-in) or GFP+ (Jak2^RL knock-out) LSKs and MEPs were sorted on a FACSAria III directly into Trizol LS (Invitrogen) and stored at −80° C. until processing. RNA was subsequently isolated using the Direct-Zol Microprep Kit (Zymo Research, R2061) according to manufacturer's protocol and quantified using the Agilent High Sensitivity RNA ScreenTape (Agilent 5067-5579) on an Agilent 2200 TapeStation. cDNA was generated from 1 ng of input RNA using the SMART-Seq HT Kit (Takara 634455) at half reaction volume followed by Nextera XT (Illumina FC-131-1024) library preparation. cDNA and tagmented libraries were quantified using High Sensitivity D5000 ScreenTape (5067-5592) and High Sensitivity D1000 ScreenTape respectively (5067-5584). Libraries were sequenced on a NovaSeq at the Integrated Genomics Operation (IGO) at MSKCC.
# Statistical analyses were performed using Student's t-test (normal distribution) using GraphPad Prism version 6.Oh (GraphPad Software, San Diego, CA). Kaplan-Meier curves were determined using the log-rank test. P<0.05 was considered statistically significant. The number of animals, cells and experimental replication can be found in the respective figure legends. FASTQ files were demultiplexed using a java script from Takara. FASTQ files were mapped and transcript counts were enumerated using STAR (genome version mm10 and transcript version ensembl XX). Counts were input into R and RNA-sequencing analysis using DESeq2. Gene set enrichment analysis was performed using the fgsea package with genesets extracted from the msigdbr package. Single sample gene set enrichment analysis was performed using the gsva package. Figures were generated using ggplot2 and tidyhetamps packages.
# [3] = system: UbcCreER-Jak2^RL MPN mice; test: bone marrow myeloid progenitor frequencies by flow cytometry after 7 days of treatment; assay type: in vivo
# [4] = system: mice transplanted with UbcCreER-Jak2^RL bone marrow exhibiting active MPN; test: 6-week in vivo drug trial in competitive transplant MPN mice; details: for CD45.2 chimerism in peripheral blood: 6-week trial; for mutant cell fraction in LSK stem-cell enriched population (mean): bone marrow; for mutant cell fraction in LSK stem-cell enriched population (mean) / spleen weights (mean) / Hct: conclusion of 6-week trial; for spleen weights (mean): ruxolitinib 60 mg/kg P.O. twice daily, CHZ868 30 mg/kg P.O. daily
# Method: (§3) Peripheral blood was isolated by submandibular bleeds.
# Investigators were not blinded to the identity of mice or samples. Mice were treated for a total of 6 weeks before timed sacrifice and marrow/spleen harvested as above.
# Ybx1 = Ybx1 quantitative RT-PCR in cKit+ bone marrow after 7 days of treatment; assay type: in vivo, mice; details: sorted cKit+ cells
# Method: Total RNA was extracted from magnetic-bead isolated cKit+ bone marrow (Miltenyi Biotec) using the Direct-zol RNA extraction kit (Zymo) per manufacturers' protocols respectively. Complementary DNA was then reverse transcribed using the Verso cDNA Synthesis kit (ThermoFisher Scientific). Ybx1 expression was evaluated by quantitative reverse-transcription (qRT) PCR using Taqman probes purchased from ThermoFisher (Mm00850878_g1) on the RealPlex thermocycler (ThermoFisher Scientific, Fairlawn, NJ).
# [5] = system: mice transplanted with Dre-electroporated Ubc:CreER-Jak2^RL bone marrow exhibiting MPN; test: Jak2^RL knock-in/knock-out competitive transplant, tamoxifen-induced Jak2^V617F deletion; assay type: in vivo; details: within 3-6 weeks following tamoxifen treatment, vs MPN control
# Source text: as §3
# [6] = system: Jak2^V617F/Tet2^f/f mutant cells; test: Jak2^V617F/Tet2^f/f competitive transplant, tamoxifen at 9 weeks post-transplant; assay type: in vivo, mice; details: double-mutant cells
# Source text: Dre mRNA was purchased from TriLink Biotechnologies (San Diego, CA) and electroporation carried out using the Neon Transfection System (ThermoScientific) per the manufacturer's protocol. Specifically, bone marrow donor cells were isolated from limb bones into PBS (pH 7.2) containing 2% fetal calf serum via centrifugation. After red blood cell lysis, single-cell suspensions were depleted of lineage-committed hematopoietic cells using a Lineage Cell Depletion Kit according to manufacturer's protocol (EasySep™, StemCell Technologies, Inc.). 2.5-3.0×10^6 lineage-depleted bone marrow was then washed in PBS and then resuspended in 135 uL Buffer T to which 15 μL of Dre mRNA (at 1 μg/μL) was quickly added and electroporated at the following conditions: 1700V for 20 ms×1 pulse. The cells were then pipetted into penicillin-streptomycin free StemSpan SFEM medium with thrombopoietin (TPO; 20 ng/mL; PeproTech) and stem cell factor (SCF; 20 ng/mL; PeproTech), cultured for two hours, and then subsequently harvested and washed/resuspended in phosphate buffered saline (PBS) and transplanted via lateral tail vein injection into lethally irradiated (900cGy) 6-8 week old C57BL/6J recipient mice at approximately 4×10^5 cells per recipient along with 50,000 un-electroporated whole bone marrow support cells. […]
# [7] = system: Npm1^c-Lox-Flt3^GL-ITD leukemia; test: long term TAM treatment of mice engrafted with Npm1^Lox-C Flt3^GL-ITD leukemia; assay type: in vivo; details: TAM-chow diet
# Source text: FIGS. 19A-19H show reversible Flt3 mutagenesis in acute myeloid leukemia. Secondary transplant of Npm1^Lox-C Flt3^GL-ITD (20,000 cells) or Idh2^Lox-R140Q Flt3^GL-ITD (500,000) from FIGS. 18A-18E were engrafted into lethally irradiated secondary recipients with 500,000 CD45.1 WT cells. […]
# [8] = system: mutant Npm1 GOLDI-Lox Nras^G12D disease; test: bone marrow transplant of Dre-induced mutant Npm1 GOLDI-Lox / Nras^G12D, TAM vs vehicle; assay type: in vivo; details: compared to vehicle treated mice
# Method: FIGS. 30A-30D show the development of a GOLDI-Lox On/Off Dre/Cre Npm1 Mouse.
# A bone marrow transplant of a Dre-induced mutant Npm1 GOLDI-Lox expressing a co-mutant Nras^G12D allele immediately after Dre induction was performed, and mice were monitored for disease development (FIG. 30D, left panel). Upon development of disease, a cohort (n=5) of mice was treated with tamoxifen (TAM) to induce Cre and lead to reversion of the mutant Npm1 allele back to WT Npm1.
# [9] = system: Cre-negative Jak2^RL MPN bone marrow cells; details: mouse, in vivo
# Source text: FIGS. 9D-9E show total bone marrow (BM) cellularity (femur) (FIG. 9D) and Myeloid progenitor (Lineage−cKit+Sca1−) (FIG. 9E) frequencies of MPN (CTRL) vs. tamoxifen (TAM) treated mice transplanted with Cre-negative JAK2^RL knock-in cells in competition with CD45.1 support at timed sacrifice 15 weeks (n=3-4 each; mean±s.e.m).
# Jak2^RL and Jak2^RL/Tet2^f/f lines were crossed to UbcCreER tamoxifen-inducible Cre lines and RLTG dual-recombinase reporter lines.^17,24 Primary recipient mice transplanted with Dre mRNA-recombined UbcCreER-Jak2^RL or UbcCreER-Jak2^RL/Tet2^f/f bone marrow cells were bled every 3-4 weeks post-transplant to monitor disease status. Peripheral blood was isolated by submandibular bleeds. Complete blood counts were assessed on a ProCyte Dx (IDEXX Laboratories, Westbrook, ME) per manufacturer's instruction. […] To induce Cre and delete Jak2^V617F, mice were treated with tamoxifen (TAM; purchased from MedChemExpress) 100 mg/kg daily (dissolved in corn oil) by oral gavage ×4 followed by 14 days of TAM chow approx. 80 mg/kg daily (ENVIGO). […] For terminal tissue isolation, mice were euthanized with CO2 asphyxiation, and tissues were dissected and fixed with 4% paraformaldehyde for histopathological analysis. […] Bone marrow cell numbers were determined via an automatic cell counter (ViCell Blu, Beckman Coulter). […]
# [10] = system: Npm1/Flt3-ITD cKIT+ cells; test: in vitro culture of cKIT+ leukemic cells with 4-OHT (PrestoBlue); assay type: cell-based, mice; details: 72 hours of culture
# [11] = system: Npm1GL hematopoietic cells; test: cell number of Dre-induced mutant Npm1 GOLDI-Lox hematopoietic cells after 4-hydroxytamoxifen; assay type: cell-based, mice; details: 7 days post administration
# Method: FIGS. 30A-30D show the development of a GOLDI-Lox On/Off Dre/Cre Npm1 Mouse. […] A subset of diseased mice were then treated with tamoxifen (TAM) to induce Cre and lead to reversion of the mutant Npm1 allele back to WT Npm1; measured levels of survival (left panel), cKIT^+ cells in the peripheral blood (middle panel), and WBC counts (right panel) in mice that received TAM compared to vehicle treated mice are shown.
# Based on previous data on mutant NPM1, it was expected that cells that lose the mutant Npm1 protein undergo differentiation and eventual apoptosis, ultimately leading to a loss of cell number. To validate the reversion of the mutant Npm1 GOLDI-Lox allele to WT, Dre-induced mutant Npm1 GOLDI-Lox hematopoietic cells were exposed to 4-hydroxytamoxifen (40HT) for Cre-recombinase induction, and cell number measured 7 days post 40HT administration using Cre^−; Npm1GL cells as a negative control.
# [12] = system: FlpoDHFR in Npm1^Frt-C Flt3^Frt-ITD bone marrow; details: FlpoDHFR delivered as a retrovirus in a transplant model
# Method: as §1, §2
compound,measurement,setting,value
C=C[C@@H]1C[C@]1(NC(=O)[C@@H]1C[C@@H]2CN1C(=O)[C@H](C(C)(C)C)NC(=O)O[C@@H]1C[C@H]1CCCCCc1nc3ccc(OC)cc3nc1O2)C(=O)NS(=O)(=O)C1CC1.O [grazoprevir],recombination upon inhibition of NS3 proteolytic activity,[1],efficient recombination
same,"peripheral blood counts with GZV treatment, CAG:DreStaPL-ODC mice",[2],"monocytosis, mild anemia and mild thrombocytopenia"
same,"peripheral blood counts with GZV treatment, Vav1:DreStaPL-ODC mice",[2],no significant differences
CC/C(=C(\c1ccccc1)c1ccc(OCCN(C)C)cc1)c1ccccc1 [tamoxifen],"down-regulation of STAT5 target gene expression, NES",Jak2^V617F LSKs and MEPs; GSEA of RNA-seq,−1.51
same,"MAPK activity by RNA-Seq, NES","Jak2^V617F LSKs and MEPs; GSEA of down regulation of KRAS signaling targets, MEPs, vs vehicle",1.35
same,GMP frequency,[3],20.1%
same,MEP frequency,[3],14.2%
same,CD45.2 chimerism in peripheral blood,[4],17.3%
same,mutant cell fraction in LSK stem-cell enriched population (mean),[4],28.7%
same,spleen weights (mean),[4],125 mg
same,"expression of Ybx1, Rel. exp",Ybx1,0.42
same,WBC (mean),[5],7.59 K/uL
same,hematocrit (mean),[5],41.6%
same,platelet (mean),[5],749 K/uL
same,hematologic parameters,[6],normalization
same,peripheral blood mutant cell fraction,[6],reductions
same,overall survival,[7],increase in overall survival
same,WBC counts,[8],significant decrease
same,cKIT+ cells in the peripheral blood,[8],significant decrease
same,survival,[8],no significant difference
same,"phenotypes observed with Ubc:CreER-Jak2^V617F deletion, with tamoxifen in the absence of Jak2^V617F reversal",[9],not observed
4-hydroxytamoxifen [4-OHT],"cell number, Ubc:CreERT2 Npm1^c-Lox-Flt3^GL-ITD cells",[10],reduction in cell number
same,"cell number, FlpoERT2 Npm1^c-Frt Flt3^Frt-ITD cells",[10]; control without Cre-deletable allele,not
same,"cell number, Cre+; Npm1GL cells",[11],significant loss of cells
same,"cell number, Cre-; Npm1GL control cells",[11]; negative control,not observed
CC(=O)Nc1cc(Oc2ccc3c(nc(Nc4ccc(F)cc4F)n3C)c2C)ccn1 [CHZ868],"MEP, GMP, and LSK mutant allele burden","[4]; compared to vehicle/ruxolitinib-treated mice, not to the extent seen with Jak2^V617F deletion",Significant reductions
same,Hct,[4],50.3%
same,spleen weights (mean),[4],76 mg
COc1cc(Cc2cnc(N)nc2N)cc(OC)c1OC [trimethoprim],disease induction in the Flp Flt3/Npm1 model,[12],capable of inducing aggressive AML
C=C[C@@H]1C[C@]1(NC(=O)[C@@H]1C[C@@H](Oc2ncc(OC)c3ccc(Cl)cc23)CN1C(=O)[C@@H](NC(=O)OC(C)(C)C)C(C)(C)C)C(=O)NS(=O)(=O)C1CC1 [asunaprevir],recombination upon inhibition of NS3 proteolytic activity,[1],efficient recombination
N#CC[C@H](C1CCCC1)n1cc(-c2ncnc3[nH]ccc23)cn1 [ruxolitinib],"down-regulation of STAT5 target gene expression, NES",Jak2^V617F LSKs and MEPs; GSEA of RNA-seq,−0.913
same,"erythroid pathway gene expression (heme metabolism), NES","Jak2^V617F LSKs and MEPs; GSEA of RNA-seq, LSKs",1.45
same,GMP frequency,[3],6.66%
same,MEP frequency,[3],35.3%
same,CD45.2 chimerism in peripheral blood,[4],37.7%
same,mutant cell fraction in LSK stem-cell enriched population (mean),[4],87.6%
same,Hct,[4],85.8%
same,spleen weights (mean),[4],235 mg
same,"expression of Ybx1, Rel. exp",Ybx1,2.52
